Assay: in vivo
Details: rat; for AUC / Cmax: hairless; for Tmax: in vivo
Experimental: In this study, four groups of hairless rats were tested under the following conditions: (1) Group 1 (3 mg free base API, Suc: 0.5 mg, AA: 1 mg); (2) Group 2 (6 mg free base API, Suc: 0.5 mg, AA: 1 mg); (3) Group 3 (9 mg free base API, Suc: 0.5 mg, AA: 1 mg); and (4) Group 4 (6 mg free base API per 100 μL head of saline).
The given bioavailability of Table 18 is relative bioavailability against SC injection.

AUC (sc, 6 mg): 5380 ng·h/mL | Cmax (sc, 6 mg): 9780 ng/mL | AUC (topical or ocular, 3 mg): 2600 ng·h/mL | Cmax (topical or ocular, 3 mg): 1040 ng/mL | AUC (topical or ocular, 6 mg): 3810 ng·h/mL | Cmax (topical or ocular, 6 mg): 1400 ng/mL | AUC (topical or ocular, 9 mg): 4390 ng·h/mL | Cmax (topical or ocular, 9 mg): 1580 ng/mL | Tmax (topical or ocular, 6 mg): 1.3 h | Tmax (topical or ocular, 9 mg): 1.1 h
SMILES: CNS(=O)(=O)Cc1ccc2[nH]cc(CCN(C)C)c2c1 [Sumatriptan Succinate]

Reference: patent US12324893B2, “Triptan microporation delivery system” (PassPort Technologies, Inc., priority 2019, dated 2025)
